Experimental data as given in article PMC6904362, “Omeprazole Treatment Enhances Nitrogen Use Efficiency Through Increased Nitrogen Uptake and Assimilation in Corn” (Frontiers in Plant Science, 2019).

Test system: T1, purified NADH-Nitrate Reductase (NR) from Arabidopsis thaliana
T1 construct: gene NIA2; commercial Arabidopsis NR is probably recombinant NIA2
Test: NR activity assay, nitrite detection (sulphanilamide/NED, […] nm), nonlinear regression
Type: biochemical
Settings: 0.8 mM NADH, 50 mM Hepes/KOH pH 7.5, FAD, Na2MoO4; nitrate 0.08-1.5 mM; no omeprazole

O=[N+]([O-])O [NO3 ^-, nitrate]
Km: 408 µM
